{
  "source": "paper PMC5218480",
  "about": "(PLoS ONE, 2017)",
  "test_system": "MV-4-11 cells",
  "experiment": "Gene expression microarray analysis (Affymetrix PrimeView) and GSEA",
  "type": "cell-based, human",
  "parameters": "RFU PODN (11730768_x_at) / Fold change /veh PODN (11730768_x_at) / RFU LINC00158 (11744669_a_at) / Fold change /veh LINC00158 (11744669_a_at) / RFU DUSP10 (11751237_a_at) / Fold change /veh DUSP10 (11751237_a_at) / RFU ID3 (11757404_x_at) / Fold change /veh ID3 (11757404_x_at) / RFU PLEKHG5 (11737974_s_at) / Fold change /veh PLEKHG5 (11737974_s_at) / RFU LRRC4B (11730491_at) / Fold change /veh LRRC4B (11730491_at) / RFU GIMAP4 (11747438_a_at) / Fold change /veh GIMAP4 (11747438_a_at) / RFU KRT8 (11758183_x_at) / Fold change /veh KRT8 (11758183_x_at) / RFU CNN1 (11734310_a_at) / Fold change /veh CNN1 (11734310_a_at) / RFU VPS37D (11726825_at) / Fold change /veh VPS37D (11726825_at) / RFU C10orf10 (11716522_x_at) / Fold change /veh C10orf10 (11716522_x_at) / RFU KIR2DL2 /// KIR2DL4 /// KIR2DL5A /// KIR2DL5B /// KIR2DS1 /// KIR2DS2 /// KIR2DS3 /// KIR2DS4 /// KIR3DL3 /// KIR3DL3 /// KIR3DS1 (11738374_at) / Fold change /veh KIR2DL2 /// KIR2DL4 /// KIR2DL5A /// KIR2DL5B /// KIR2DS1 /// KIR2DS2 /// KIR2DS3 /// KIR2DS4 /// KIR3DL3 /// KIR3DL3 /// KIR3DS1 (11738374_at) / RFU C1QL1 (11718748_at) / Fold change /veh C1QL1 (11718748_at) / RFU TMPRSS4 (11747572_a_at) / Fold change /veh TMPRSS4 (11747572_a_at) / RFU HAMP (11756126_x_at) / Fold change /veh HAMP (11756126_x_at) / RFU RNFT2 (11725882_a_at) / Fold change /veh RNFT2 (11725882_a_at) / RFU NR4A2 (11747474_a_at) / Fold change /veh NR4A2 (11747474_a_at) / RFU ABCC12 (11746883_a_at) / Fold change /veh ABCC12 (11746883_a_at) / RFU TMEM136 (11760407_x_at) / Fold change /veh TMEM136 (11760407_x_at) / RFU CLDN22 /// WWC2 (11732394_at) / Fold change /veh CLDN22 /// WWC2 (11732394_at) / RFU HLA-DPB1 (11760878_x_at) / Fold change /veh HLA-DPB1 (11760878_x_at) / RFU SPINT1 (11716480_a_at) / Fold change /veh SPINT1 (11716480_a_at) / RFU GAP43 (11754022_s_at) / Fold change /veh GAP43 (11754022_s_at) / RFU A4GNT (11735810_at) / Fold change /veh A4GNT (11735810_at) / RFU PRB3 (11715151_x_at) / Fold change /veh PRB3 (11715151_x_at) / RFU TUBB4B (11761932_at) / Fold change /veh TUBB4B (11761932_at) / RFU CAPN14 (11732068_a_at) / Fold change /veh CAPN14 (11732068_a_at) / RFU TMCC2 (11721928_a_at) / Fold change /veh TMCC2 (11721928_a_at) / RFU IRGQ (11745062_a_at) / Fold change /veh IRGQ (11745062_a_at) / RFU FAM174B (11720279_a_at) / Fold change /veh FAM174B (11720279_a_at) / RFU TMPRSS4 (11748680_a_at) / Fold change /veh TMPRSS4 (11748680_a_at) / RFU FAM212B (11763350_a_at) / Fold change /veh FAM212B (11763350_a_at) / RFU PLEKHG5 (11743358_a_at) / Fold change /veh PLEKHG5 (11743358_a_at) / RFU ZSCAN30 (11745921_a_at) / Fold change /veh ZSCAN30 (11745921_a_at) / RFU CMKLR1 (11741424_a_at) / Fold change /veh CMKLR1 (11741424_a_at) / RFU LOC101060620 /// MAPK8IP1 (11723275_at) / Fold change /veh LOC101060620 /// MAPK8IP1 (11723275_at) / RFU SPTSSB (11747773_x_at) / Fold change /veh SPTSSB (11747773_x_at) / RFU PRSS12 (11739890_at) / Fold change /veh PRSS12 (11739890_at) / RFU BIN1 (11741810_x_at) / Fold change /veh BIN1 (11741810_x_at) / RFU WNT11 (11732464_a_at) / Fold change /veh WNT11 (11732464_a_at) / RFU C10orf10 (11716521_a_at) / Fold change /veh C10orf10 (11716521_a_at) / RFU C5orf56 (11738089_at) / Fold change /veh C5orf56 (11738089_at) / RFU CYB561 (11721691_x_at) / Fold change /veh CYB561 (11721691_x_at) / RFU ANKRD19P (11752326_a_at) / Fold change /veh ANKRD19P (11752326_a_at) / RFU OR2T12 /// OR2T33 /// OR2T8 (11738714_s_at) / Fold change /veh OR2T12 /// OR2T33 /// OR2T8 (11738714_s_at) / RFU VCAN (11748164_a_at) / Fold change /veh VCAN (11748164_a_at) / RFU JSRP1 (11732532_at) / Fold change /veh JSRP1 (11732532_at) / RFU KRTAP10-11 (11738290_x_at) / Fold change /veh KRTAP10-11 (11738290_x_at) / RFU MYO3A (11730013_a_at) / Fold change /veh MYO3A (11730013_a_at) / RFU EBF3 (11725865_a_at) / Fold change /veh EBF3 (11725865_a_at) / RFU CAMK2N1 (11719241_x_at) / Fold change /veh CAMK2N1 (11719241_x_at) / RFU C5orf56 (11738088_a_at) / Fold change /veh C5orf56 (11738088_a_at) / RFU OLFML3 (11715873_a_at) / Fold change /veh OLFML3 (11715873_a_at) / RFU LOC100653217 /// NTM (11731650_a_at) / Fold change /veh LOC100653217 /// NTM (11731650_a_at) / RFU MAPK11 (11762145_a_at) / Fold change /veh MAPK11 (11762145_a_at) / RFU FIZ1 (11724087_x_at) / Fold change /veh FIZ1 (11724087_x_at) / RFU OASL (11726364_x_at) / Fold change /veh OASL (11726364_x_at) / RFU SOX15 (11748057_x_at) / Fold change /veh SOX15 (11748057_x_at) / RFU CD79A (11719716_a_at) / Fold change /veh CD79A (11719716_a_at) / RFU HIST1H1D (11736915_at) / Fold change /veh HIST1H1D (11736915_at) / RFU CASKIN2 (11723855_a_at) / Fold change /veh CASKIN2 (11723855_a_at) / RFU LOC730098 (11760151_x_at) / Fold change /veh LOC730098 (11760151_x_at) / RFU OR4N2 (11742367_at) / Fold change /veh OR4N2 (11742367_at) / RFU PRRT2 (11749266_a_at) / Fold change /veh PRRT2 (11749266_a_at) / RFU SNX32 (11753110_a_at) / Fold change /veh SNX32 (11753110_a_at) / RFU CDHR5 (11726645_a_at) / Fold change /veh CDHR5 (11726645_a_at) / RFU RCAN1 (11760418_a_at) / Fold change /veh RCAN1 (11760418_a_at) / RFU FAM167A (11723789_a_at) / Fold change /veh FAM167A (11723789_a_at) / RFU FAM26E (11764081_at) / Fold change /veh FAM26E (11764081_at) / RFU ISYNA1 (11749810_s_at) / Fold change /veh ISYNA1 (11749810_s_at) / RFU ACY1 (11761880_at) / Fold change /veh ACY1 (11761880_at) / RFU 11764098_at / Fold change /veh 11764098_at / RFU SAMD14 (11745864_x_at) / Fold change /veh SAMD14 (11745864_x_at) / RFU NPB (11741838_a_at) / Fold change /veh NPB (11741838_a_at) / RFU TMPRSS6 (11731388_a_at) / Fold change /veh TMPRSS6 (11731388_a_at) / RFU KRTAP10-2 (11738614_at) / Fold change /veh KRTAP10-2 (11738614_at) / RFU ARHGAP8 /// PRR5-ARHGAP8 (11727945_x_at) / Fold change /veh ARHGAP8 /// PRR5-ARHGAP8 (11727945_x_at) / RFU KRTAP5-7 /// NADSYN1 (11734609_at) / Fold change /veh KRTAP5-7 /// NADSYN1 (11734609_at) / RFU RASL12 (11751679_a_at) / Fold change /veh RASL12 (11751679_a_at) / RFU CDKN2B (11736163_a_at) / Fold change /veh CDKN2B (11736163_a_at) / RFU PRF1 (11729649_at) / Fold change /veh PRF1 (11729649_at) / RFU, ZNF638 /// ZNF638-IT1 / Fold change vs veh, ZNF638 /// ZNF638-IT1 / RFU, PANK3 / Fold change vs veh, PANK3 / RFU, SH3YL1 / Fold change vs veh, SH3YL1 / RFU, ZEB2 / Fold change vs veh, ZEB2 / RFU, NRIP1 / Fold change vs veh, NRIP1 / RFU, PTTG1IP / Fold change vs veh, PTTG1IP / RFU, CAPN2 / Fold change vs veh, CAPN2 / RFU, MED14 / Fold change vs veh, MED14 / RFU, SNORA58 / Fold change vs veh, SNORA58 / RFU, C1orf63 / Fold change vs veh, C1orf63 / RFU, LRRFIP1 / Fold change vs veh, LRRFIP1 / RFU, NDUFAF7 / Fold change vs veh, NDUFAF7 / RFU, SLC12A2 / Fold change vs veh, SLC12A2 / RFU, IBTK / Fold change vs veh, IBTK / RFU, ESF1 / Fold change vs veh, ESF1 / Fold change vs veh, TMEM50B / RFU, TAOK1 / Fold change vs veh, TAOK1 / RFU, ACBD3 / Fold change vs veh, ACBD3 / RFU, TMA16 / Fold change vs veh, TMA16 / RFU, RWDD3 / Fold change vs veh, RWDD3 / RFU, BCAT1 / Fold change vs veh, BCAT1 / RFU, EDEM3 / Fold change vs veh, EDEM3 / RFU, TMEM33 / Fold change vs veh, TMEM33 / RFU, WDR75 / Fold change vs veh, WDR75 / RFU, AHCTF1 / Fold change vs veh, AHCTF1 / RFU, TFRC / Fold change vs veh, TFRC / RFU, ZDHHC17 / Fold change vs veh, ZDHHC17 / RFU, NOM1 / Fold change vs veh, NOM1 / RFU, ARL8B / Fold change vs veh, ARL8B / RFU, ZBTB11 / Fold change vs veh, ZBTB11 / RFU, TAMM41 / Fold change vs veh, TAMM41 / RFU, KIAA1704 /// LOC100996395 / Fold change vs veh, KIAA1704 /// LOC100996395 / RFU, ING1 / Fold change vs veh, ING1 / RFU, TRMT61B / Fold change vs veh, TRMT61B / RFU, FUBP3 / Fold change vs veh, FUBP3 / RFU, TP53 / Fold change vs veh, TP53 / RFU, TNKS2 / Fold change vs veh, TNKS2 / RFU, ZFP14 / Fold change vs veh, ZFP14 / RFU, ACTR2 / Fold change vs veh, ACTR2 / RFU, PPP3R1 / Fold change vs veh, PPP3R1 / RFU, PIK3R1 / Fold change vs veh, PIK3R1 / RFU, HNRNPA1 / Fold change vs veh, HNRNPA1 / RFU, RNF170 / Fold change vs veh, RNF170 / RFU, ZNF28 / Fold change vs veh, ZNF28 / RFU, RNGTT / Fold change vs veh, RNGTT / RFU, OGT / Fold change vs veh, OGT / RFU, BRD1 / Fold change vs veh, BRD1 / RFU, MARS / Fold change vs veh, MARS / RFU, ZNF655 / Fold change vs veh, ZNF655 / RFU, FAHD1 / Fold change vs veh, FAHD1 / RFU, BDP1 / Fold change vs veh, BDP1 / RFU, LRRCC1 / Fold change vs veh, LRRCC1 / RFU, ARID1A / Fold change vs veh, ARID1A / RFU, ZNF146 / Fold change vs veh, ZNF146 / RFU, ZNF330 / Fold change vs veh, ZNF330 / RFU, GPN3 / Fold change vs veh, GPN3 / RFU, C9orf123 / Fold change vs veh, C9orf123 / RFU, N4BP2L2 / Fold change vs veh, N4BP2L2 / RFU, ARFIP1 / Fold change vs veh, ARFIP1 / RFU, FAM179B / Fold change vs veh, FAM179B / RFU, BCL10 / Fold change vs veh, BCL10 / RFU, UHRF1BP1L / Fold change vs veh, UHRF1BP1L / RFU, BET1 / Fold change vs veh, BET1 / RFU, CNOT2 / Fold change vs veh, CNOT2 / RFU, ZNF268 / Fold change vs veh, ZNF268 / Fold change vs veh, ZNF507 / RFU, DGCR2 / Fold change vs veh, DGCR2 / RFU, WDSUB1 / Fold change vs veh, WDSUB1 / Fold change vs veh, HSP90B1 /// MIR3652 / RFU, ADSS / Fold change vs veh, ADSS / RFU, GK / Fold change vs veh, GK / RFU, ZNF148 / Fold change vs veh, ZNF148 / RFU, TAF9 / Fold change vs veh, TAF9 / RFU, SLC1A5 / Fold change vs veh, SLC1A5 / RFU, SLMO2 / Fold change vs veh, SLMO2 / RFU, ABCC4 / Fold change vs veh, ABCC4 / RFU, LOC101060439 /// RAP1B / Fold change vs veh, LOC101060439 /// RAP1B / RFU, RFX7 / Fold change vs veh, RFX7 / RFU, GTPBP10 / Fold change vs veh, GTPBP10 / RFU, CNEP1R1 / Fold change vs veh, CNEP1R1 / RFU, BIVM-ERCC5 /// ERCC5 / Fold change vs veh, BIVM-ERCC5 /// ERCC5 / RFU, ILF3 / Fold change vs veh, ILF3 / RFU 11762660_at / Fold change /veh 11762660_at / RFU VCAN (11757783_s_at) / Fold change /veh VCAN (11757783_s_at) / RFU DDX43 (11728927_at) / Fold change /veh DDX43 (11728927_at) / RFU KRT8 (11758188_x_at) / Fold change /veh KRT8 (11758188_x_at) / RFU NKD1 (11759106_at) / Fold change /veh NKD1 (11759106_at) / RFU SRD5A1 (11742802_a_at) / Fold change /veh SRD5A1 (11742802_a_at) / RFU TPSAB1 /// TPSB2 (11721975_s_at) / Fold change /veh TPSAB1 /// TPSB2 (11721975_s_at) / RFU GSTM3 (11746129_a_at) / Fold change /veh GSTM3 (11746129_a_at) / RFU IL23R (11737362_x_at) / Fold change /veh IL23R (11737362_x_at) / RFU TMEM51 (11727254_a_at) / Fold change /veh TMEM51 (11727254_a_at) / RFU PIWIL2 (11732686_x_at) / Fold change /veh PIWIL2 (11732686_x_at) / RFU ORM1 (11744905_x_at) / Fold change /veh ORM1 (11744905_x_at) / RFU CCDC152 (11743942_at) / Fold change /veh CCDC152 (11743942_at) / RFU ECM1 (11717891_a_at) / Fold change /veh ECM1 (11717891_a_at) / RFU IL23R (11748794_a_at) / Fold change /veh IL23R (11748794_a_at) / RFU TNFAIP8L3 (11732012_x_at) / Fold change /veh TNFAIP8L3 (11732012_x_at) / RFU MBOAT4 (11741988_at) / Fold change /veh MBOAT4 (11741988_at) / RFU 11764193_at / Fold change /veh 11764193_at / RFU TMEM53 (11763286_at) / Fold change /veh TMEM53 (11763286_at) / RFU MAGEB2 (11727129_at) / Fold change /veh MAGEB2 (11727129_at) / RFU TMEM200A (11744735_a_at) / Fold change /veh TMEM200A (11744735_a_at) / RFU CCDC152 (11751479_a_at) / Fold change /veh CCDC152 (11751479_a_at) / RFU FAM211A (11726209_a_at) / Fold change /veh FAM211A (11726209_a_at) / RFU RGS16 (11746705_a_at) / Fold change /veh RGS16 (11746705_a_at) / RFU VCAN (11755009_s_at) / Fold change /veh VCAN (11755009_s_at) / RFU RHOB (11743442_s_at) / Fold change /veh RHOB (11743442_s_at) / RFU RGS16 (11720943_a_at) / Fold change /veh RGS16 (11720943_a_at) / RFU RGS16 (11720944_at) / Fold change /veh RGS16 (11720944_at) / RFU, VPS4B / Fold change vs veh, VPS4B / RFU, CREB1 / Fold change vs veh, CREB1 / RFU, DNAJC13 / Fold change vs veh, DNAJC13 / RFU, GNAQ / Fold change vs veh, GNAQ / RFU, CDK5R1 / Fold change vs veh, CDK5R1 / RFU, ZRANB3 / Fold change vs veh, ZRANB3 / RFU, CUL4A / Fold change vs veh, CUL4A / RFU, CCNY / Fold change vs veh, CCNY / RFU, UFL1 / Fold change vs veh, UFL1 / RFU, COG3 / Fold change vs veh, COG3 / RFU, DIAPH2 / Fold change vs veh, DIAPH2 / RFU, SKA2 / Fold change vs veh, SKA2 / RFU, AFF3 / Fold change vs veh, AFF3 / RFU, LMF1 / Fold change vs veh, LMF1 / RFU, IPO11 / Fold change vs veh, IPO11 / RFU, DFFB / Fold change vs veh, DFFB / RFU, FOXP1 / Fold change vs veh, FOXP1 / RFU, CARD8 / Fold change vs veh, CARD8 / RFU, STRN3 / Fold change vs veh, STRN3 / RFU, ADK / Fold change vs veh, ADK / RFU, RASSF2 / Fold change vs veh, RASSF2 / RFU, WIPF1 / Fold change vs veh, WIPF1 / RFU, LARP1B / Fold change vs veh, LARP1B / RFU, RASA1 / Fold change vs veh, RASA1 / RFU, RB1 / Fold change vs veh, RB1 / RFU, PPFIA1 / Fold change vs veh, PPFIA1 / RFU, MAT2A / Fold change vs veh, MAT2A / RFU, CCT5 / Fold change vs veh, CCT5 / RFU, WDR92 / Fold change vs veh, WDR92 / RFU, CUX1 / Fold change vs veh, CUX1 / RFU, TTC7A / Fold change vs veh, TTC7A / RFU, TMEM135 / Fold change vs veh, TMEM135 / RFU, DEPTOR / Fold change vs veh, DEPTOR / RFU, CPM / Fold change vs veh, CPM / RFU, DNAJB6 / Fold change vs veh, DNAJB6 / RFU, CACNA2D3 / Fold change vs veh, CACNA2D3 / RFU, DTX4 / Fold change vs veh, DTX4 / RFU, TFCP2 / Fold change vs veh, TFCP2 / RFU, GMCL1 /// GMCL1P1 / Fold change vs veh, GMCL1 /// GMCL1P1 / RFU, AEBP2 / Fold change vs veh, AEBP2 / RFU, SNHG1 /// SNORD22 /// SNORD25 /// SNORD26 /// SNORD27 /// SNORD28 /// SNORD29 /// SNORD31 / Fold change vs veh, SNHG1 /// SNORD22 /// SNORD25 /// SNORD26 /// SNORD27 /// SNORD28 /// SNORD29 /// SNORD31 / Fold change (Aza/veh), C12orf56 (ProbeSet 11735607_a_at) / Fold change (ACY-1035/veh), C12orf56 (ProbeSet 11735607_a_at) / Fold change (Aza/veh), FGFR1OP (ProbeSet 11751329_s_at) / Fold change (ACY-1035/veh), FGFR1OP (ProbeSet 11751329_s_at) / Fold change (Aza/veh), VPS36 (ProbeSet 11739960_a_at) / Fold change (ACY-1035/veh), VPS36 (ProbeSet 11739960_a_at) / RFU SYPL1 (11715823_x_at) / Fold change /veh SYPL1 (11715823_x_at) / RFU IGFBP7 (11715501_s_at) / Fold change /veh IGFBP7 (11715501_s_at) / RFU REEP3 (11722064_at) / Fold change /veh REEP3 (11722064_at) / RFU IGLL1 (11728026_x_at) / Fold change /veh IGLL1 (11728026_x_at): dose or concentration left out as unconfirmed",
  "conditions": "ProbeSet 11764057_s_at; LIST B",
  "data": [
    {"smiles": "Nc1ccc(-c2cccs2)cc1NC(=O)c1ccc2c(c1)cc(C1CC1)n2CCN1CCOCC1", "note": "[ACY-1035]", "values": [
      {"measurement": "Fold change vs veh, C1orf63", "result": 0.95}
    ]}
  ]
}
